Assay results as given in US10786577B2, “Pharmaceutical composition comprising glutatione disulfide and glutathione disulfide S-oxide” (OBSCHESTVO S OGRANICHENNOY OTVETSTVENNOSTJU “IVA FARM”, priority 2017, dated 2020).

Key:
[1] = test system: glutathione reductase (XE 1.6.4.2); experiment: Liver enzyme activity in rats with cyclophosphan hepatotoxicity; settings: rat liver cytosolic fraction; cyclophosphan 20 mg/kg for 10 days; test substance intraperitoneally 10 mg/kg (compound 2: 0.1 mg/kg)
[2] = test system: glutathione peroxidase (XE 1.11.1.9); experiment: as above; settings: rat liver cytosolic fraction; cyclophosphan 20 mg/kg for 10 days; test substance intraperitoneally 10 mg/kg (compound 2: 0.1 mg/kg)
[3] = test system: glutathione-S-transferase (XE 2.5.1.18); experiment: as above; settings: rat liver cytosolic fraction; cyclophosphan 20 mg/kg for 10 days; test substance intraperitoneally 10 mg/kg (compound 2: 0.1 mg/kg)
[4] = test system: glucose-6-phosphate dehydrogenase (XE 1.1.1.49); experiment: as above; settings: rat liver cytosolic fraction; cyclophosphan 20 mg/kg for 10 days; test substance intraperitoneally 10 mg/kg (compound 2: 0.1 mg/kg)
reduced glutathione = experiment: Liver reduced glutathione in rats with cyclophosphan hepatotoxicity; settings: rat liver; cyclophosphan 20 mg/kg for 10 days; test substance intraperitoneally 10 mg/kg (compound 2: 0.1 mg/kg)
[5] = test system: cultured resident peritoneal rat macrophages; experiment: Intracellular calcium concentration [Ca2+]i with Fura-2AM in macrophages; format: cell-based

Structure (SMILES) | GR [1] | GP [2] | GST [3] | G-6-PDG [4] | GSH (reduced glutathione) [μmol/g protein] | [Ca2+]i peak ([5]; 200 μM extracellular ATP, macrophages in normal saline, basal level 75±18 nM) [nM] | average [Ca2+]i during plateau phase ([5]; 4 minutes after the addition of ATP (200 μM), normal saline) [nM]
NC(CCC(=O)NC(CS[S+]([O-])CC(NC(=O)CCC(N)C(=O)O)C(=O)NCC(=O)O)C(=O)NCC(=O)O)C(=O)O (stereo not shown) [Example 1, glutathione disulfide S-oxide] | 117.8 ± 12.6 μmol/(min × g protein | 27.9 ± 2.2 μmol/(min × g protein | 1857 ± 120 μmol/(min × g protein | 98.1 ± 13.3 μmol/(min × g protein | 11.21 ± 0.56 |  | 
Nc1ncnc2c1ncn2[C@@H]1O[C@H](COP(=O)(O)OP(=O)(O)OP(=O)(O)O)[C@@H](O)[C@H]1O [ATP] |  |  |  |  |  | 820 ± 105 | 460 ± 115
